# Test results taken from patent publication US7138361B2, “Herbicidal heterocycles” (E. I. du Pont de Nemours and Company, priority 2000, dated 2006).
# Experiments:
# Format in all cases: in vivo
# corn (Zea mays) = experiment: Test B preemergence
# Outline: (§1)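 Ratings on a 0 to 100 visual scale (100 complete control) compare treated plants with controls 13 to 15 days after application. Treatments were pre- or postemergence sprays of compound in non-phytotoxic solvent with surfactant.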
# [1] = tested on: barnyardgrass (Echinochloa crus-galli); experiment: Test B preemergence
# Outline: as §1
# [2] = tested on: lambsquarters (Chenopodium album); experiment: Test B preemergence
# Outline: as §1
# [3] = tested on: morning glory (Ipomoea hederacea); experiment: Test B preemergence
# Outline: as §1
# [4] = tested on: crabgrass (Digitaria sanguinalis); experiment: Test B preemergence
# Outline: as §1
# [5] = tested on: velvetleaf (Abutilon theophrasti); experiment: Test B preemergence
# Outline: as §1
# [6] = tested on: giant foxtail (Setaria faberii); experiment: Test B preemergence
# Outline: as §1
# [7] = tested on: Surinam grass (Brachiaria decumbens); experiment: Test B preemergence
# Outline: as §1
# [8] = tested on: cocklebur (Xanthium strumarium); experiment: Test B preemergence
# Outline: as §1
# rice (Oryza saliva) [9] = experiment: Test B preemergence
# Outline: as §1
# [10] = tested on: pigweed (Amaranthus retroflexus); experiment: Test B preemergence
# Outline: as §1
# [11] = tested on: barnyardgrass (Echinochloa crus-galli); experiment: Test C flooded paddy test; conditions: for Barnyardgrass plant response rating: Flooded Paddy, Rate 500 g/ha, scale 0 to 100, 0 no effect, 100 complete control; for Plant response rating, Barnyardgrass / Plant response rating (scale 0 to 100), Barnyardgrass: flooded paddy test; for Plant response rating, Barnyardgrass: scale 0 to 100 (0 no effect, 100 complete control); for Plant response rating (scale 0 to 100), Barnyardgrass: Rate 62 g/ha, visually evaluated after 12 to 14 days, 0 = no effect, 100 = complete control
# Outline: (§2)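 Visual ratings (0 = no effect, 100 = complete control) were made 12–14 days after treatment, relative to greenhouse controls. Plants in the flooded paddy test were rice, smallflower flatsedge, duck salad and barnyardgrass, treated at the 2-leaf stage.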
# [12] = tested on: smallflower flatsedge (Cyperus difformis); experiment: Test C flooded paddy test; conditions: for Flatsedge plant response rating: Flooded Paddy, Rate 500 g/ha, scale 0 to 100, 0 no effect, 100 complete control; for Plant response rating, Flatsedge / Plant response rating (scale 0 to 100), Flatsedge: flooded paddy test; for Plant response rating, Flatsedge: scale 0 to 100 (0 no effect, 100 complete control); for Plant response rating (scale 0 to 100), Flatsedge: Rate 62 g/ha, visually evaluated after 12 to 14 days, 0 = no effect, 100 = complete control
# Outline: as §2
# rice (Oryza saliva) [13] = experiment: Test C flooded paddy test; conditions: for Rice plant response rating: Flooded Paddy, Rate 500 g/ha, scale 0 to 100, 0 no effect, 100 complete control; for Plant response rating, Rice / Plant response rating (scale 0 to 100), Rice: flooded paddy test; for Plant response rating, Rice: scale 0 to 100 (0 no effect, 100 complete control); for Plant response rating (scale 0 to 100), Rice: Rate 62 g/ha, visually evaluated after 12 to 14 days, 0 = no effect, 100 = complete control
# Outline: as §2
# [14] = tested on: duck salad (Heteranthera limosa); experiment: Test C flooded paddy test; conditions: for Ducksalad plant response rating: Flooded Paddy, Rate 500 g/ha, scale 0 to 100, 0 no effect, 100 complete control; for Plant response rating, Ducksalad / Plant response rating (scale 0 to 100), Ducksalad: flooded paddy test; for Plant response rating, Ducksalad: scale 0 to 100 (0 no effect, 100 complete control); for Plant response rating (scale 0 to 100), Ducksalad: Rate 62 g/ha, visually evaluated after 12 to 14 days, 0 = no effect, 100 = complete control
# Outline: as §2
# Nightshade = experiment: Test C preemergence; conditions: Rate 500 g/ha, visual evaluation after 12 to 14 days
# Sunflower = experiment: Test C preemergence; conditions: Rate 250 g/ha, scale 0 to 100, 0 no effect, 100 complete control
# [15] = tested on: barnyardgrass (Echinochloa crus-galli); experiment: Test B postemergence
# Outline: as §1
# [16] = tested on: lambsquarters (Chenopodium album); experiment: Test B postemergence
# Outline: as §1
# [17] = tested on: blackgrass (Alopecurus myosuroides); experiment: Test B postemergence
# Outline: as §1
# [18] = tested on: morning glory (Ipomoea hederacea); experiment: Test B postemergence
# Outline: as §1
# [19] = tested on: crabgrass (Digitaria sanguinalis); experiment: Test B postemergence
# Outline: as §1
# wild oat (Avena fatua) = experiment: Test B postemergence
# Outline: as §1
# [20] = tested on: Surinam grass (Brachiaria decumbens); experiment: Test B postemergence
# Outline: as §1
# [21] = tested on: cocklebur (Xanthium strumarium); experiment: Test B postemergence
# Outline: as §1
# [22] = tested on: pigweed (Amaranthus retroflexus); experiment: Test B postemergence
# Outline: as §1
# [23] = Preemergence, Rate 500 g/ha, scale 0 to 100, 0 no effect, 100 complete control
# [24] = preemergence, Rate 125 g/ha, scale of 0 to 100 where 0 is no effect and 100 is complete control, 13 to 15 days
# [25] = Rate 125 g/ha, scale 0 to 100, 0 no effect, 100 complete control
# [26] = Rate 500 g/ha, scale 0 (no effect) to 100 (complete control), 13 to 15 days
smiles,measurement,setting,value
COc1cc(N2CCC(n3ccc(C(C)C)n3)C2=O)ccc1Br (centres unmarked) [Compound 140],"Plant response rating, Corn",corn (Zea mays); [23],20
same,"Plant response rating, Corn",corn (Zea mays); [24],0
same,"Plant response rating, Barnyardgrass",[1]; [23],100
same,"Plant response rating, Barnyardgrass",[1]; [24],100
same,"Plant response rating, Lambsquarters",[2]; [23],100
same,"Plant response rating, Lambsquarters",[2]; [24],100
same,"Plant response rating, Morningglory",[3]; [23],100
same,"Plant response rating, Morningglory",[3]; [24],0
same,"Plant response rating, Crabgrass",[4]; [23],100
same,"Plant response rating, Crabgrass",[4]; [24],100
same,"Plant response rating, Velvetleaf",[5]; [23],80
same,"Plant response rating, Velvetleaf",[5]; [24],60
same,"Plant response rating, Foxtail, Giant",[6]; [23],100
same,"Plant response rating, Foxtail, Giant",[6]; [24],100
same,"Plant response rating, Surinam grass",[7]; [23],100
same,"Plant response rating, Surinam grass",[7]; [24],100
same,"Plant response rating, Cocklebur",[8]; [23],60
same,"Plant response rating, Cocklebur",[8]; [24],20
same,"Plant response rating, Rice",rice (Oryza saliva) [9]; [23],40
same,"Plant response rating, Rice",rice (Oryza saliva) [9]; [24],20
same,"Plant response rating, Pigweed",[10]; [23],100
same,"Plant response rating, Pigweed",[10]; [24],100
same,Barnyardgrass plant response rating,[11],100
same,"Plant response rating, Barnyardgrass",[11]; Rate 125 g/ha,100
same,"Plant response rating, Barnyardgrass",[11]; Rate 250 g/ha,100
same,"Plant response rating (scale 0 to 100), Barnyardgrass",[11],50
same,Flatsedge plant response rating,[12],95
same,"Plant response rating, Flatsedge",[12]; Rate 125 g/ha,90
same,"Plant response rating, Flatsedge",[12]; Rate 250 g/ha,95
same,"Plant response rating (scale 0 to 100), Flatsedge",[12],90
same,Rice plant response rating,rice (Oryza saliva) [13],50
same,"Plant response rating, Rice",rice (Oryza saliva) [13]; Rate 125 g/ha,30
same,"Plant response rating, Rice",rice (Oryza saliva) [13]; Rate 250 g/ha,35
same,"Plant response rating (scale 0 to 100), Rice",rice (Oryza saliva) [13],0
same,Ducksalad plant response rating,[14],95
same,"Plant response rating, Ducksalad",[14]; Rate 125 g/ha,75
same,"Plant response rating, Ducksalad",[14]; Rate 250 g/ha,95
same,"Plant response rating (scale 0 to 100), Ducksalad",[14],20
same,"Plant response rating (0 to 100), Nightshade",Nightshade,100
same,"Plant response rating, Sunflower",Sunflower,60
same,"Plant response rating, Barnyardgrass",[15]; [25],0
same,"Plant response rating, Barnyardgrass",[15]; [26],80
same,"Plant response rating, Lambsquarters",[16]; [25],70
same,"Plant response rating, Lambsquarters",[16]; [26],100
same,"Plant response rating, Blackgrass",[17]; [25],0
same,"Plant response rating, Blackgrass",[17]; [26],0
same,"Plant response rating, Morningglory",[18]; [25],0
same,"Plant response rating, Morningglory",[18]; [26],100
same,"Plant response rating, Crabgrass",[19]; [25],20
same,"Plant response rating, Crabgrass",[19]; [26],80
same,"Plant response rating, Wild Oat",wild oat (Avena fatua); [25],0
same,"Plant response rating, Wild Oat",wild oat (Avena fatua); [26],0
same,"Plant response rating, Surinam grass",[20]; [25],0
same,"Plant response rating, Surinam grass",[20]; [26],0
same,"Plant response rating, Cocklebur",[21]; [25],60
same,"Plant response rating, Cocklebur",[21]; [26],90
same,"Plant response rating, Pigweed",[22]; [25],60
same,"Plant response rating, Pigweed",[22]; [26],90
COc1cc(N2CCC(n3ccc(C(C)(C)C)n3)C2=O)ccc1Br (centres unmarked) [Compound 141],"Plant response rating, Corn",corn (Zea mays); [23],20
same,"Plant response rating, Corn",corn (Zea mays); [24],0
same,"Plant response rating, Barnyardgrass",[1]; [23],100
same,"Plant response rating, Barnyardgrass",[1]; [24],100
same,"Plant response rating, Lambsquarters",[2]; [23],100
same,"Plant response rating, Lambsquarters",[2]; [24],100
same,"Plant response rating, Morningglory",[3]; [23],100
same,"Plant response rating, Morningglory",[3]; [24],90
same,"Plant response rating, Crabgrass",[4]; [23],100
same,"Plant response rating, Crabgrass",[4]; [24],100
same,"Plant response rating, Velvetleaf",[5]; [23],100
same,"Plant response rating, Velvetleaf",[5]; [24],70
same,"Plant response rating, Foxtail, Giant",[6]; [23],100
same,"Plant response rating, Foxtail, Giant",[6]; [24],100
same,"Plant response rating, Surinam grass",[7]; [23],100
same,"Plant response rating, Surinam grass",[7]; [24],100
same,"Plant response rating, Cocklebur",[8]; [23],100
same,"Plant response rating, Cocklebur",[8]; [24],70
same,"Plant response rating, Rice",rice (Oryza saliva) [9]; [23],50
same,"Plant response rating, Rice",rice (Oryza saliva) [9]; [24],30
same,"Plant response rating, Pigweed",[10]; [23],100
same,"Plant response rating, Pigweed",[10]; [24],100
same,Barnyardgrass plant response rating,[11],100
same,"Plant response rating, Barnyardgrass",[11]; Rate 125 g/ha,100
same,"Plant response rating, Barnyardgrass",[11]; Rate 250 g/ha,100
same,"Plant response rating (scale 0 to 100), Barnyardgrass",[11],70
same,Flatsedge plant response rating,[12],95
same,"Plant response rating, Flatsedge",[12]; Rate 125 g/ha,90
same,"Plant response rating, Flatsedge",[12]; Rate 250 g/ha,95
same,"Plant response rating (scale 0 to 100), Flatsedge",[12],90
same,Rice plant response rating,rice (Oryza saliva) [13],35
same,"Plant response rating, Rice",rice (Oryza saliva) [13]; Rate 125 g/ha,25
same,"Plant response rating, Rice",rice (Oryza saliva) [13]; Rate 250 g/ha,30
same,"Plant response rating (scale 0 to 100), Rice",rice (Oryza saliva) [13],0
same,Ducksalad plant response rating,[14],100
same,"Plant response rating, Ducksalad",[14]; Rate 125 g/ha,95
same,"Plant response rating, Ducksalad",[14]; Rate 250 g/ha,100
same,"Plant response rating (scale 0 to 100), Ducksalad",[14],85
same,"Plant response rating (0 to 100), Nightshade",Nightshade,100
same,"Plant response rating, Sunflower",Sunflower,40
same,"Plant response rating, Barnyardgrass",[15]; [25],0
same,"Plant response rating, Barnyardgrass",[15]; [26],80
same,"Plant response rating, Lambsquarters",[16]; [25],90
same,"Plant response rating, Lambsquarters",[16]; [26],100
same,"Plant response rating, Blackgrass",[17]; [25],0
same,"Plant response rating, Blackgrass",[17]; [26],40
same,"Plant response rating, Morningglory",[18]; [25],0
same,"Plant response rating, Morningglory",[18]; [26],70
same,"Plant response rating, Crabgrass",[19]; [25],20
same,"Plant response rating, Crabgrass",[19]; [26],40
same,"Plant response rating, Wild Oat",wild oat (Avena fatua); [25],0
same,"Plant response rating, Wild Oat",wild oat (Avena fatua); [26],0
same,"Plant response rating, Surinam grass",[20]; [25],0
same,"Plant response rating, Surinam grass",[20]; [26],0
same,"Plant response rating, Cocklebur",[21]; [25],40
same,"Plant response rating, Cocklebur",[21]; [26],100
same,"Plant response rating, Pigweed",[22]; [25],80
same,"Plant response rating, Pigweed",[22]; [26],100
